In patent US20040014140A1, “Methods for identifying allosteric sites” (priority 2002, published 2004):

How the values were obtained:
[1] = tested on: mutant PTP-1B where Asn-193 is mutated to alanine, Phe-196 is mutated to arginine, and Phe-280 is mutated to cysteine; assay: Inhibition of allosterically disabled mutant PTP-1B; assay type: biochemical, human; conditions: N193A, F196R, F280C mutant; allosteric mechanism disabled
Text: The importance of allosteric forming residues, Asn-193, Phe-196, and Phe-280 has been confirmed in part using mutagenesis experiments.
PTP-1B[321; N193A; F196R; F280C] was generated by joining an NdeI-PstI fragment from PTP-IB[321; N193A; F196R], corresponding to residues 1-215, with a PstI-EcoRI fragment from PTP-1B[321; F280C], corresponding to residues 216-321.
PTP-1B[298; N193A; F196R; F280C] was generated by PCR using PTP-1B[321; N193A; F196R; F280C] as a template. T7 vector primer was used as forward primer and truncation at residue 298 was generated using the primer 5′-[…] (SEQ ID. NO. 22).

caspase-9 = assay: Tethering experiments with caspase-9; set-up: species or system human; conditions: binding to the small subunit, cysteine corresponding to Ile-265 in caspase-3
Protocol: This example describes one embodiment of a tethering experiment using caspase-3 or cysteine mutants thereof. […] Reactions were allowed to proceed to equilibrium (≧1 hour) before being analyzed by mass spectrometry. The reaction mixture was loaded onto a Finnegan LCQ2 or LCQ3 LCMS, with each run taking 2-5 minutes, depending upon the separation procedure. After deconvolution, the large and/or small subunits were identified based upon their known molecular weight.

Compound | inhibition of mutant PTP-1B [1] | selection in tethering experiments (caspase-9)
CCc1oc2cc(S(=O)(=O)Nc3ccc(S(N)(=O)=O)cc3)ccc2c1C(=O)c1cc(Br)c(O)c(Br)c1 [compound 15] | no longer capable of inhibiting the enzyme | –
O=C(O)c1ccc(Oc2ccccc2)cc1 [compound 8] | – | selected
